Test results reported in PubChem BioAssay (NCI).
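Compound exposure: 48 hours, 5 concentrations, 96-well plates. TGI denotes the concentration required for complete inhibition of growth.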

Tests used:
Experiment in all cases: growth of human tumour cells (NCI), 48 h
[1] = system: CCRF-CEM leukemia
[2] = system: HCC-2998 colon
[3] = system: HOP-62 NSCLC
[4] = system: KM12 colon
[5] = system: MDA-MB-435
[6] = system: OVCAR-4 ovarian
[7] = system: OVCAR-8 ovarian
[8] = system: PC-3 prostate
[9] = system: RPMI-8226 leukemia
[10] = system: T-47D breast
[11] = system: U251 CNS
[12] = system: UACC-62 melanoma
[13] = system: UO-31 renal

SMILES | TGI [1] | TGI [2] | TGI [3] | TGI [4] | TGI [5] | TGI [6] | TGI [7] | TGI [8] | TGI [9] | TGI [10] | TGI [11] | TGI [12] | TGI [13]
COC(=O)CCC12CCC(O1)c1ccccc12 (centres undefined) | > 100 µM | > 100 µM | > 100 µM | > 100 µM | > 100 µM | > 100 µM | > 100 µM | > 100 µM | > 100 µM | > 100 µM | > 100 µM | > 100 µM | > 100 µM
C=CC[C@H](C)CCC(=O)N1[C@H]2CC3CC[C@@]2(CS1(=O)=O)C3(C)C | 59.2 µM | > 100 µM | > 100 µM | > 100 µM | > 100 µM | > 100 µM | > 100 µM | > 100 µM | > 100 µM | > 100 µM | > 100 µM | > 100 µM | > 100 µM
Cc1nc2c(sc3nc4ccccc4n32)c(=O)[nH]1 | > 100 µM | > 100 µM | > 100 µM | > 100 µM | > 100 µM | > 100 µM | > 100 µM | > 100 µM | > 100 µM | > 100 µM | > 100 µM | > 100 µM | > 100 µM
CNC(=S)N/N=C/c1cccc(C)n1 | > 73.6 µM | > 100 µM | 46.7 µM | > 100 µM | > 100 µM | > 100 µM | > 75.7 µM | > 100 µM | > 100 µM | > 92.4 µM | > 100 µM | 56.4 µM | > 100 µM
COc1ccc2c3c1OC1c4[nH]c5ccccc5c4CC4(O)C(C2)N(C)CCC314 (centres undefined) | 52.8 µM | 31 µM | > 100 µM | > 100 µM | 35.7 µM | > 100 µM | > 100 µM | > 100 µM | 45.9 µM | 43.6 µM | 44.8 µM | 57.3 µM | 28.1 µM
COc1ccc(N=C(Nc2ccc(OC)cc2)C(=Nc2ccc(OC)cc2)Nc2ccc(OC)cc2)cc1 | > 100 µM | > 100 µM | > 100 µM | > 100 µM | > 100 µM | > 100 µM | > 100 µM | > 100 µM | > 100 µM | > 100 µM | > 100 µM | > 100 µM | > 100 µM
CC12Cc3cc4c(cc3C1(c1ccc([N+](=O)[O-])cc1)OCCO2)OCO4 (centres undefined) | > 100 µM | > 100 µM | 46.5 µM | > 100 µM | > 100 µM | > 100 µM | 64 µM | > 100 µM | > 100 µM | > 100 µM | > 100 µM | > 100 µM | > 100 µM
CNC1=CC(=O)C2=C(C1=O)[C@H]1CC[C@]3(C)C(=O)CC[C@H]3[C@@H]1CC2 | 30.4 µM | 31.7 µM | 29.8 µM | 23.6 µM | 13.1 µM | 37.4 µM | 29.5 µM | 38.9 µM | 48.5 µM | 57.9 µM | > 60.2 µM | 31.9 µM | 49.2 µM
